{"source": "patent US9586994B2", "about": "“CD44V6-derived peptides for treating breast cancer” (KARLSRUHER INSTITUT FÜR TECHNOLOGIE, priority 2012, dated 2017)", "key": {"CD44v6 [1]": {"biological_target": "T1, CD44v6 (Homo sapiens, UniProt P16070)", "T1 construct": "endogenous in cells; host or cells: MCF7; MCF10A", "T1 sequence (P16070 21-742)": "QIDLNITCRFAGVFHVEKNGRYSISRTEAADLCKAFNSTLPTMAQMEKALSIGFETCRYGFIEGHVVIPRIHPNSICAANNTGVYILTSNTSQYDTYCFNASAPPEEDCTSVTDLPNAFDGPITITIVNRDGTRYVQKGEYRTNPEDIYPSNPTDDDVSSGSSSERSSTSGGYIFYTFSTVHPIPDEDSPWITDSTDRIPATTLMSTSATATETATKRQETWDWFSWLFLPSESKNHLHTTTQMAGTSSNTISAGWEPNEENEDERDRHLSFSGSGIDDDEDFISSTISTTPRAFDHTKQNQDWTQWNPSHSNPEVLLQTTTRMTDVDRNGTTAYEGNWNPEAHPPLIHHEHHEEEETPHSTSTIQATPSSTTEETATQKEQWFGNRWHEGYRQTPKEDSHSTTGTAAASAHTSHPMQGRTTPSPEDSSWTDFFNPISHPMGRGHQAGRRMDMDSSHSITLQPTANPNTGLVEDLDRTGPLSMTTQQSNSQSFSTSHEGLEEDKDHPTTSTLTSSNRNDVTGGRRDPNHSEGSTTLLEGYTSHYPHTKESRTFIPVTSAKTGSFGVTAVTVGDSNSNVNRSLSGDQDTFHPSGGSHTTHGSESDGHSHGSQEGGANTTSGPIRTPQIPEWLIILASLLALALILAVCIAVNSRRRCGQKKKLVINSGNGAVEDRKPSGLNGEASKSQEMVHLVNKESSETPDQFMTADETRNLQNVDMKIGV", "experiment": "Peptide blocking of EGF/TGFα-induced Erk phosphorylation in MCF7 cells (Western blot)", "type": "cell-based", "conditions": "peptide 100 ng/ml; for EGF-induced activation of the ErbB receptors (Erk phosphorylation): MCF7, serum-starved, EGF 20 ng/ml", "protocol": "(§1) 3×10^5 were seeded per well of a 6-well plate and serum-starved for 24 hours. Afterwards the medium inside of each well was reduced to 1 ml and the respective peptide (v6 (both peptides of SEQ ID No.: 2 and 6 were tested), or ctrl peptide) was added at a concentration of 100 ng/ml. The cells then were incubated together with the peptide at 37° C. for 5 mins. Ligand concentration for all peptide blocking experiments was 20 ng/ml.\n(§2) To assay protein expression via Western blot cells were washed 1× with PBS and afterwards lysed in 2×Laemmli sample buffer (160 mM Tris-HCl pH 6.8, 4% SDS, 16% glycerol, 0.1M DTT, 0.01% bromphenol blue). The sample was sheared through a 26 gauge needle. In succession the lysates were boiled for 5 mins at 99° C. in order to denature the proteins in the sample and then spun down at 10 000 rmp for 1 min Eventually the samples were loaded onto an SDS-PAGE gel.\nTo test whether CD44v6 acts as a co-receptor in MCF7 or MCF10A cells, a peptide blocking experiment using peptides of SEQ ID NO: 6 was conducted. The cells were serum-starved for 24 h and then pre-incubated with a v6 peptide or an unspecific control peptide. Then, the cells were induced with EGF or HGF as a control. As a read-out for ErbB-activation, the phosphorylation of the Erk-kinase was used."}, "CD44v6 [2]": {"system": "CD44v6", "experiment": "Peptide blocking of ErbB ligand- or HGF-induced Erk-kinase phosphorylation in HT29 cells (Western blot)", "type": "cell-based, human", "conditions": "peptide 100 ng/ml; for EGF-dependent Erk-phosphorylation: EGF 20 ng/ml", "protocol": "as §1\nThe cells were incubated with the growth factors specified in the particular experiment. Except for the peptide blocking and migration assays, ligand concentration was 5 ng/ml at all times. Prior to induction the cells were treated as indicated in the results section.\nas §2\nIn order to test whether CD44v6 plays a role in the activation of the ErbB family of receptors, a peptide blocking experiment using the 14mers of SEQ ID No. 6 was performed in HT29 cells. The fact that this cell line expresses all ErbB receptors (Wu et al, 2009, see references) and several CD44 variants including also exon v3 and v6 (Orian-Rousseau et al., 2002, see references) makes it a suitable tool to evaluate the co-receptor function of CD44 proteins for the ErbB family. The first ErbB1-ligand that was evaluated was EGF. […] The cells were serum starved for 24 hours and induced with EGF. Phosphorylation of the Erk-Kinase, a downstream target of the ErbB receptor family, was used as a read-out for ErbB receptor activation. HGF was used as a control to test the blocking efficiency of the CD44v6 peptide since the induction of the Erk kinase through Met is dependent on CD44v6 (Orian-Rousseau et al., 2002, see references).\nBesides EGF, five other ligands, namely AR, BC, ER, HB-EGF, and TGFα, can activate the ErbB1 receptor. EGF, AR and TGFα bind to either an ErbB1-homo- or an ErbB1/2-heterodimer. In addition to these dimers, BC, ER and HB-EGF can also bind to an Erb4/4 homo- or an ErbB2/4 heterodimer. It was investigated whether the activation of the ErbB receptors by the indicated ligands is also dependent on CD44v6. HT29 cells were serum-starved for 24 hours and pre-treated with the v6-specific or a control peptide. They were then induced with the indicated ErbB ligands. Erk-kinase phosphorylation was used as a read-out for receptor activation.\nFor this purpose HT29 cells were serum-starved for 24 hours and pre-treated with the v6-specific or a control peptide. They were then induced with the indicated ErbB ligands. Erk-kinase phosphorylation was used as a read-out for receptor activation. All ligands could activate the Erk-kinase. […] These ligands are independent of CD44v6 for their induction of the ErbB receptors. This is especially striking, since EGF and TGF-α address the same receptor pairs (ErbB1/1 or ErbB1/2)."}}}
{"sequence": "KEQWFGNRWHEGYR [SEQ ID NO: 6, human CD44v6 14mer peptide]", "values": [{"measurement": "EGF-induced activation of the ErbB receptors (Erk phosphorylation)", "setting": "CD44v6 [1]", "result": "blocking of Erk phosphorylation"}, {"measurement": "EGF-induced activation of the ErbB receptors (Erk phosphorylation)", "setting": "CD44v6 [1]; listed as CD44v6-specific peptide", "result": "could be blocked"}, {"measurement": "Erk phosphorylation upon TGFα induction", "setting": "CD44v6 [1]; MCF7, TGFα 20 ng/ml", "result": "not upon TGFα induction"}, {"measurement": "EGF-dependent Erk-phosphorylation", "setting": "CD44v6 [2]; HT29, serum-starved, 5 min pre-incubation, listed as CD44v6 peptide", "result": "could be inhibited"}, {"measurement": "EGF-dependent Erk-phosphorylation", "setting": "CD44v6 [2]; HT29, serum-starved, 5 min pre-incubation, listed as human v6 14mer", "result": "inhibited"}, {"measurement": "HGF-dependent Erk-phosphorylation", "setting": "CD44v6 [2]; HT29, serum-starved, 5 min pre-incubation, HGF as control ligand", "result": "could be inhibited"}, {"measurement": "AR-induced activation of the ErbB receptors (Erk phosphorylation)", "setting": "CD44v6 [2]; HT29, AR 20 ng/ml", "result": "could not be inhibited"}, {"measurement": "BC-induced activation of the ErbB receptors (Erk phosphorylation)", "setting": "CD44v6 [2]; HT29, BC 20 ng/ml", "result": "could not be inhibited"}, {"measurement": "ER-dependent Erk-phosphorylation", "setting": "CD44v6 [2]; HT29, ER 20 ng/ml", "result": "inhibited"}, {"measurement": "HB-EGF-induced activation of the ErbB receptors (Erk phosphorylation)", "setting": "CD44v6 [2]; HT29, HB-EGF 20 ng/ml", "result": "could not be inhibited"}, {"measurement": "TGFα-induced activation of the ErbB receptors (Erk phosphorylation)", "setting": "CD44v6 [2]; HT29, TGFα 20 ng/ml", "result": "could not be inhibited"}]}
